Assay results from patent EP3272768A1, “CHIMERIC PEPTIDES USEFUL IN MALARIA PROPHYLAXIS OR TREATMENT” (priority 2016, dated 2018).
Peptide text beside a SMILES is read from it.

Test system: primary human hepatocytes
Format: cell-based
Method: A) Overlapping dodecapeptides with two amino acid shift covering the whole […] PfLRR1 protein were bound to a solid support. The membrane was incubated sequentially with PP1 protein, and anti- PP1 antibody, followed by a peroxidase-labeled secondary antibody. […] PfLRR1.1 and PfLRR1.2 are shown. B) PP1 sequence alignment between human and P. falciparum species (SEQ ID NO:16 and 15). • Figures 2A and 2B show in vitro cell viability assay. Primary hepatocytes were treated with or without various concentrations of […] or […] peptides. Absorbance was recorded 72h after. […] The assay was done using parasitemia of 0.5% and hematocrit of 1%. The peptides were added at various concentrations and incubated for 48h and then, fixed. Samples were analyzed by flow cytometry. Results are expressed as percentage of growth inhibition. • Figures 4A and 4B show in vitro effect of chimeric peptides PfLRR1.1 (peptide 1) and PfLRR1.2 (peptide 2) on the hepatic stage of the P. falciparum. […] The culture was fixed with paraformaldehyde (PFA) and analysed by fluorescence microscopy. • Figures 5A and 5B show in vitro effect of peptides PfLRR1.1 and PfLRR1.2 on the hepatic stage of the P. vivax. […] The culture was fixed with PFA and analysed by fluorescence microscopy.
The cell viability was determined using a colorimetric assay based on 3-(4,5-dimethylthiazol- 2-yl)-2,5 diphenyltetrazolium bromide (MTT). […]

SMILES | toxicity for the host cell (primary human hepatocyte)
CC[C@H](C)[C@H](NC(=O)[C@H](CCCCN)NC(=O)[C@H](CCCCN)NC(=O)[C@H](CCCCN)NC(=O)[C@H](CCCCN)NC(=O)[C@@H](N)C(C)C)C(=O)N[C@@H](CCCCN)C(=O)N[C@@H](C)C(=O)N[C@@H](CCC(=O)O)C(=O)N[C@H](C(=O)N[C@@H](CCCCN)C(=O)N[C@H](C(=O)N[C@H](C(=O)N[C@@H](CCC(=O)O)C(=O)N[C@@H](CC(N)=O)C(=O)N[C@@H](CC(C)C)C(=O)N[C@@H](CCC(N)=O)C(=O)N[C@@H](CC(N)=O)C(=O)N[C@@H](CS)C(=O)N[C@@H](CCCCN)C(=O)N[C@@H](CCCCN)C(=O)N[C@@H](CC(C)C)C(=O)N[C@@H](CCCNC(=N)N)C(=O)N[C@@H](CC(C)C)C(=O)N[C@@H](CC(C)C)C(=O)N[C@@H](CCC(=O)O)C(=O)N[C@@H](CC(C)C)C(=O)NCC(=O)N[C@@H](Cc1ccc(O)cc1)C(=O)N[C@@H](CC(N)=O)C(=O)N[C@@H](CCCCN)C(=O)N[C@H](C(=O)N[C@@H](CCCNC(=N)N)C(=O)N[C@@H](CCSC)C(=O)O)[C@@H](C)CC)[C@@H](C)CC)[C@@H](C)CC)[C@@H](C)CC [PfLRR1.2] (H-VKKKKIKAEIKIIENLQNCKKLRLLELGYNKIRM-OH) | not toxic
CC[C@H](C)[C@H](NC(=O)[C@H](CCCCN)NC(=O)[C@H](CCCCN)NC(=O)[C@H](CCCCN)NC(=O)[C@H](CCCCN)NC(=O)[C@@H](N)C(C)C)C(=O)N[C@@H](CCCCN)C(=O)N[C@@H](C)C(=O)N[C@@H](CCC(=O)O)C(=O)N[C@H](C(=O)N[C@@H](CCCCN)C(=O)N[C@H](C(=O)N[C@@H](CCC(=O)O)C(=O)N[C@@H](CC(N)=O)C(=O)N[C@@H](Cc1ccc(O)cc1)C(=O)N[C@@H](CCCNC(=N)N)C(=O)N[C@@H](CCCCN)C(=O)N[C@H](C(=O)N[C@H](C(=O)N[C@H](C(=O)N[C@@H](Cc1c[nH]cn1)C(=O)N[C@H](C(=O)N[C@@H](CC(C)C)C(=O)N1CCC[C@H]1C(=O)N[C@@H](CCC(N)=O)C(=O)N[C@@H](CC(C)C)C(=O)N[C@@H](CCCCN)C(=O)N[C@@H](CCC(N)=O)C(=O)N[C@@H](CC(C)C)C(=O)N[C@@H](CC(=O)O)C(=O)N[C@@H](C)C(=O)N[C@@H](CC(C)C)C(=O)O)[C@@H](C)CC)[C@@H](C)CC)[C@@H](C)CC)[C@@H](C)O)[C@@H](C)CC)[C@@H](C)CC [PfLRR1.1] (H-VKKKKIKAEIKIENYRKTIIHILPQLKQLDAL-OH) | not toxic
